# Calls of active or inactive are those of the source. No cut-off for these calls is given here.
# How the values were obtained:
# [1] = target: Protein cereblon/Cyclin-dependent kinase 6 (Mus musculus) (UniProt Q8C7D2+Q64261); assay: Protac activity at CRBN/CDK6 in mouse B16-F10 cells assessed as induction of CDK4 degradation at 0.05 uM incubated for 24 hrs by Western blot analysis; assay type: cell-based
# [2] = target: Protein cereblon/Cyclin-dependent kinase 4 (Mus musculus) (UniProt P30285+Q8C7D2); assay: Protac activity at CRBN/CDK4 in mouse B16-F10 cells assessed as induction of CDK4 degradation at 0.05 uM incubated for 24 hrs by Western blot analysis; assay type: cell-based
# Chain of Protein cereblon/Cyclin-dependent kinase 4 (Mus musculus) (P30285 whole entry, looked up): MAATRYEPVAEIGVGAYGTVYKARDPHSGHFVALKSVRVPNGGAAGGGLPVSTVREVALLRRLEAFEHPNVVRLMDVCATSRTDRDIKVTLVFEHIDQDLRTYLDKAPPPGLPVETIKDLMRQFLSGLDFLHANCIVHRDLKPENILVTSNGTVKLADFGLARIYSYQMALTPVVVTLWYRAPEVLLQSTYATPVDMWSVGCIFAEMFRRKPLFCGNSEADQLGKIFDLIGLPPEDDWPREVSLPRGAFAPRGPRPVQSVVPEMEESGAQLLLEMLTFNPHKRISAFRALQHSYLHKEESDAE
# Chain of Protein cereblon/Cyclin-dependent kinase 4 (Mus musculus) (Q8C7D2 whole entry, looked up): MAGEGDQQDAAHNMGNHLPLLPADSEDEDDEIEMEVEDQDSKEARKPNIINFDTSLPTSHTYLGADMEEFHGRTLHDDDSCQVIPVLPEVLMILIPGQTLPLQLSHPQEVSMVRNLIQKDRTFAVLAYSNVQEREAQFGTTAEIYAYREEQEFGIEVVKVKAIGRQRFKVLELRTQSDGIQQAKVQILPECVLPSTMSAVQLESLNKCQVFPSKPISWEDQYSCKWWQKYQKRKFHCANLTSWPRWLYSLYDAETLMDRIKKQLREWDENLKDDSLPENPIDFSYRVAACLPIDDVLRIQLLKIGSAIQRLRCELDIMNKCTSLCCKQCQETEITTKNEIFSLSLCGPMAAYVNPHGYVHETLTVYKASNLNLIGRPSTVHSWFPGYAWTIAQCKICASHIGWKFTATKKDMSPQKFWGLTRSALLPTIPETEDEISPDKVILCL
# MDA-MB-231 = assay: Cytotoxicity against human MDA-MB-231 cells assessed as inhibition of cell growth incubated for 72 hrs by CCK-8 assay; assay type: functional, cell-based; details: MDA-MB-231, 72 h
# B16-F10 [3] = assay: Induction of apoptosis in mouse B16-F10 cells assessed as early apoptotic cells at 125 nM incubated for 48 hrs by Annexin V-FITC/PI staining based flow cytometry analysis (reference value: 3.42%); assay type: functional
# HFF-1 = assay: Cytotoxicity against human HFF-1 cells assessed as reduction of cell viability incubated for 72 hrs by CCK-8 assay; assay type: toxicity, cell-based; details: hff-1, 72 h
# B16-F10 [4] = assay: Induction of apoptosis in mouse B16-F10 cells assessed as late apoptotic cells at 250 nM incubated for 48 hrs by Annexin V-FITC/PI staining based flow cytometry analysis (reference value: 1.97%); assay type: functional
# B16-F10 [5] = assay: Induction of apoptosis in mouse B16-F10 cells assessed as dead cells at 125 nM incubated for 48 hrs by Annexin V-FITC/PI staining based flow cytometry analysis (reference value: 1.75%); assay type: functional
# B16-F10 [6] = assay: Induction of apoptosis in mouse B16-F10 cells assessed as live cells at 250 nM incubated for 48 hrs by Annexin V-FITC/PI staining based flow cytometry analysis (reference value: 92.85 %); assay type: functional
# A549 = assay: Cytotoxicity against human A549 cells assessed as inhibition of cell growth incubated for 72 hrs by CCK-8 assay; assay type: functional, cell-based; details: A549, 72 h
# B16-F10 [7] = assay: Induction of cell cycle arrest in mouse B16-F10 cells assessed as accumulation of cells at S phase at 125 nM incubated for 24 hrs by RNase/PI staining based flow cytometry analysis (reference value: 12.45%); assay type: functional
# B16-F10 [8] = assay: Cytotoxicity against mouse B16-F10 cells assessed as inhibition of cell growth incubated for 72 hrs by CCK-8 assay; assay type: functional, cell-based; details: B16-F10, 72 h
# B16-F10 [9] = assay: Induction of apoptosis in mouse B16-F10 cells assessed as live cells at 125 nM incubated for 48 hrs by Annexin V-FITC/PI staining based flow cytometry analysis (reference value: 92.85 %); assay type: functional
# B16-F10 [10] = assay: Induction of cell cycle arrest in mouse B16-F10 cells assessed as accumulation of cells at G2 phase at 125 nM incubated for 24 hrs by RNase/PI staining based flow cytometry analysis (reference value: 16.13%); assay type: functional
# B16-F10 [11] = assay: Induction of apoptosis in mouse B16-F10 cells assessed as early apoptotic cells at 250 nM incubated for 48 hrs by Annexin V-FITC/PI staining based flow cytometry analysis (reference value: 3.42%); assay type: functional
# [12] = Acute toxicity in zebra fish embryos incubated for 72 hrs; set-up: species or system Danio rerio; details: zebrafish
# B16-F10 [13] = assay: Induction of cell cycle arrest in mouse B16-F10 cells assessed as accumulation of cells at S phase at 250 nM incubated for 24 hrs by RNase/PI staining based flow cytometry analysis (reference value: 12.45%); assay type: functional
# B16-F10 [14] = assay: Induction of apoptosis in mouse B16-F10 cells assessed as dead cells at 250 nM incubated for 48 hrs by Annexin V-FITC/PI staining based flow cytometry analysis (reference value: 1.75%); assay type: functional
# B16-F10 [15] = assay: Induction of cell cycle arrest in mouse B16-F10 cells assessed as accumulation of cells at G1 phase at 250 nM incubated for 24 hrs by RNase/PI staining based flow cytometry analysis (reference value: 68.89%); assay type: functional
# B16-F10 [16] = assay: Induction of apoptosis in mouse B16-F10 cells assessed as late apoptotic cells at 125 nM incubated for 48 hrs by Annexin V-FITC/PI staining based flow cytometry analysis (reference value: 1.97%); assay type: functional
# [17] = Toxicity in C57BL/6J mouse implanted with mouse B16-F10 cells at 20 mg/kg, ip administered once daily for 2 weeks and measured every 2 days; assay type: organism-based; details: in vivo, 336 h
# HepG2 = assay: Cytotoxicity against human HepG2 cells assessed as inhibition of cell growth incubated for 72 hrs by CCK-8 assay; assay type: functional, cell-based; details: HepG2, 72 h
# A-375 = assay: Cytotoxicity against human A-375 cells assessed as inhibition of cell growth incubated for 72 hrs by CCK-8 assay; assay type: functional, cell-based; details: A-375, 72 h
# B16-F10 [18] = assay: Induction of cell cycle arrest in mouse B16-F10 cells assessed as accumulation of cells at G2 phase at 250 nM incubated for 24 hrs by RNase/PI staining based flow cytometry analysis (reference value: 16.13%); assay type: functional
# B16-F10 [19] = assay: Induction of cell cycle arrest in mouse B16-F10 cells assessed as accumulation of cells at G1 phase at 125 nM incubated for 24 hrs by RNase/PI staining based flow cytometry analysis (reference value: 68.89%); assay type: functional
# [20] = target: HSP90/Cyclin-dependent kinase 6 (Mus musculus, UniProt P07901+P11499+Q64261); assay: HEMTAC activity at HSP90/CDK6 in mouse B16-F10 cells assessed as induction of […] degradation incubated for 24 hrs by Western blot analysis; assay type: cell-based
# [21] = target: Heat shock protein HSP 90-alpha (Homo sapiens, UniProt P07900); assay: Binding affinity to CM5 sensor chip immobilized human HSP90alpha assessed as dissociation constant by SPR analysis
# [22] = target: HSP90/Cyclin-dependent kinase 4 (Mus musculus, UniProt P07901+P11499+P30285); assay: HEMTAC activity at HSP90/CDK4 in mouse B16-F10 cells assessed as induction of CDK4 degradation incubated for 24 hrs by Western blot analysis; assay type: cell-based
# [23] = target: HSP90/Cyclin-dependent kinase 6 (Mus musculus) (UniProt P07901+Q64261+P11499); assay: HEMTAC activity at HSP90/CDK6 in mouse B16-F10 cells assessed as induction of […] degradation at 0.01 to 1 uM measured after 24 hrs by Western blot analysis; assay type: cell-based; details: dose 0.01-1 µM
# [24] = target: HSP90/Cyclin-dependent kinase 4 (Mus musculus) (UniProt P30285+P07901+P11499); assay: HEMTAC activity at HSP90/CDK4 in mouse B16-F10 cells assessed as induction of CDK4 degradation at 0.01 to 1 uM measured after 24 hrs by Western blot analysis; assay type: cell-based; details: dose 0.01-1 µM
SMILES,IC50 (MDA-MB-231),Activity (HFF-1),IC50 (A549),IC50 (B16-F10 [8]),IC50 (HepG2),IC50 (A-375),EC50 [20],Kd [21],EC50 [22],also measured
CC(=O)c1c(C)c2cnc(Nc3ccc(N4CCN(CCCCNC(=O)COc5cccc6c5C(=O)N(C5CCC(=O)NC5=O)C6=O)CC4)cn3)nc2n(C2CCCC2)c1=O (configuration not stated),–,–,–,–,–,–,–,–,–,Activity [1]: Active; Activity [2]: Active
COc1c(C)cnc(Cn2cnc3c(Cl)nc(N)nc32)c1C [BIIB021],339 nM,Toxic,134 nM,176 nM,113 nM,253 nM,–,–,–,Activity (B16-F10 [3]): 13.64%; Activity (B16-F10 [4]): 12.55%; Activity (B16-F10 [5]): 2.03%; Activity (B16-F10 [6]): 68.27%; Activity (B16-F10 [7]): 12.26%; Activity (B16-F10 [9]): 78.06%; Activity (B16-F10 [10]): 14.09%; Activity (B16-F10 [11]): 16.92%; LC50 at 72 h [12]: < 1 µM; Activity (B16-F10 [13]): 2.62%; Activity (B16-F10 [14]): 2.26%; Activity (B16-F10 [15]): 77.76%; Activity (B16-F10 [16]): 6.27%; Activity [17]: Non-Toxic; Activity (B16-F10 [18]): 18.95%; Activity (B16-F10 [19]): 73.13%
COc1c(C)cnc(Cn2cc(C#CCCn3cc(C(=O)N4CCN(c5ccc(Nc6ncc7c(C)c(C(C)=O)c(=O)n(C8CCCC8)c7n6)nc5)CC4)nn3)c3c(Cl)nc(N)nc32)c1C,> 10000 nM,Non-Toxic,2440 nM,546 nM,1710 nM,293 nM,105 nM,460 nM,110 nM,–
COc1c(C)cnc(Cn2cc(C#CCCn3cc(C(=O)NCCOCCNC(=O)CN4CCN(c5ccc(Nc6ncc7c(C)c(C(C)=O)c(=O)n(C8CCCC8)c7n6)nc5)CC4)nn3)c3c(Cl)nc(N)nc32)c1C,1850 nM,Non-Toxic,8890 nM,7880 nM,3760 nM,6340 nM,478 nM,306 nM,> 500 nM,–
COc1c(C)cnc(Cn2cc(C#CCCn3cc(CNC(=O)CN4CCN(c5ccc(Nc6ncc7c(C)c(C(C)=O)c(=O)n(C8CCCC8)c7n6)nc5)CC4)nn3)c3c(Cl)nc(NC(C)=O)nc32)c1C,–,–,–,–,–,–,–,–,–,Activity [23]: inactive; Activity [24]: inactive
COc1c(C)cnc(Cn2cc(C#CCCn3cc(C(=O)NCCNC(=O)CN4CCN(c5ccc(Nc6ncc7c(C)c(C(C)=O)c(=O)n(C8CCCC8)c7n6)nc5)CC4)nn3)c3c(Cl)nc(N)nc32)c1C,3630 nM,Non-Toxic,> 10000 nM,6820 nM,> 10000 nM,7640 nM,325 nM,67.5 nM,446 nM,–
COc1c(C)cnc(Cn2cc(C#CCCNC(=O)CN3CCN(c4ccc(Nc5ncc6c(C)c(C(C)=O)c(=O)n(C7CCCC7)c6n5)nc4)CC3)c3c(Cl)nc(N)nc32)c1C,> 10000 nM,Non-Toxic,607 nM,821 nM,547 nM,906 nM,88 nM,8.39 nM,96 nM,–
COc1c(C)cnc(Cn2cc(C#CCCn3cc(C(=O)NCCOCCOCCNC(=O)CN4CCN(c5ccc(Nc6ncc7c(C)c(C(C)=O)c(=O)n(C8CCCC8)c7n6)nc5)CC4)nn3)c3c(Cl)nc(N)nc32)c1C,1140 nM,Non-Toxic,3550 nM,1000 nM,2540 nM,1840 nM,245 nM,18.7 nM,268 nM,–
CC(=O)c1c(C)c2cnc(Nc3ccc(N4CCNCC4)cn3)nc2n(C2CCCC2)c1=O [PALBOCICLIB],> 10000 nM,Non-Toxic,> 10000 nM,> 10000 nM,> 10000 nM,> 10000 nM,–,–,–,Activity (B16-F10 [3]): 2.55%; Activity (B16-F10 [4]): 5.51%; Activity (B16-F10 [5]): 5.34%; Activity (B16-F10 [6]): 89.12%; Activity (B16-F10 [7]): 13.29%; Activity (B16-F10 [9]): 86.8%; Activity (B16-F10 [10]): 13.57%; Activity (B16-F10 [11]): 2.53%; LC50 at 72 h [12]: > 100 µM; Activity (B16-F10 [13]): 9.98%; Activity (B16-F10 [14]): 2.84%; Activity (B16-F10 [15]): 74.4%; Activity (B16-F10 [16]): 5.31%; Activity (B16-F10 [18]): 15.63%; Activity (B16-F10 [19]): 72.84%

# Source: ChEMBL document CHEMBL5316290, “Targeted Protein Degradation Induced by HEMTACs Based on HSP90” (J Med Chem, 2023)
